The values below come from patent US20240239762A1, “NOVEL HETEROCYCLIC COMPOUNDS” (FLORATEK PHARMA S.A., priority 2021, published 2024).

“Also recorded” adds a separate entry of the source. Read-outs that look alike come from different tables or passages of the source.

The test system of one assay is C. elegans strain SD1347. The experiment in a line: Age-related sarcopenia model: muscle mitochondrial fragmentation scoring. Format: in vivo, Caenorhabditis elegans. The settings on record: day 11; 50 μM; ANOVA and multiple comparisons (FIG. 8). On the procedure:
C. elegans strain SD1347 confirmed to have nuclear and mitochondrial GFP labeling in muscle was obtained from the Caenorhabditis Genetic Center.
Synchronized worm populations were administered a single concentration of 50 μM SND compounds by exposure on NGM plates starting the day before adulthood. All plates contained 50 μM 5-Fluorodeoxyuridine (FUdR) to prevent progeny production. Animals were immobilized using NemaGel (InVivo Biosystems) and imaged within 1 hour. Worms were alive throughout imaging. For each worm imaged, one head and one tail image was collected from regions excluding the pharynx, vulva, and tip of the tail. For day 1, a single session imaged a minimum of 5 worms per condition.
For aged worms, two total biological replicates were collected, each with 5-6 worms imaged per condition. Images were obtained using a Nikon Eclipse Ti2 spinning disk confocal microscope. After processing, each image was scored blindly in replicate groups by six viewers.
Stock solutions of SND compounds were prepared by dissolving to 50 mM in DMSO. Working solutions were prepared such that the final concentration of compound in the total volume of the solid media would be 50 μM, and the DMSO concentration would not exceed 0.1% (e.g. 10 μl in a 10 mL dish). […]

The subject of assay [1] is C. elegans. The settings on record: cited from earlier work.
The test system of assay [2] is C. elegans. The experiment in a line: Lifespan assay on the Automated Lifespan Machine. The assay is classed as in vivo, Caenorhabditis elegans. The settings on record: 50 μM; for Max life span: 95th percentile of lifespans in each group; for Mean life span: calculated from the area under the survival curve; for Median life span: day 1 set at day 1 of adulthood, time at which 50% of the worms have died. The source says: To prevent chemical modification or metabolism of the test article by the food bacteria, worms were fed on a lawn of UV-killed bacteria (UV-i bacteria). An overnight culture of E. coli strain WP-2 was pelleted, washed, filtered, and irradiated. A suspension of UV-i bacteria was spotted on NGM agar containing Streptomycin to inhibit the growth of contaminating bacteria. The quantity and distribution of food bacteria were calibrated to ensure adequate access to food for the duration of assay while maintaining visibility of the worms.
Test compounds were soluble in 100% DMSO. The compounds were dissolved in a working solution and then combined directly with the food bacteria before seeding on agar plates. The food spots are dried slowly, allowing the compound to diffuse into the food bacteria and the agar for at least 24 hours before worms were introduced.
The ALM used by InVivoBiosystems is based on the Caenorhabditis elegans lifespan machine published by Stroustrup et. Al [Stroustrup, N. et al. The Caenorhabditis elegans Lifespan Machine. Nat Methods 10, 665-670 (2013)], with proprietary modifications to improve temperature stability and image acquisition. The scanner unit consisted of a modified EPSON V850 and images were processed and analyzed using the ALM software. The machine time-of-death calls are trained and validated using the “storyboarding” feature of the ALM software.
The lifespan assay was designed and performed according to published and validated methods [Amrit, F. R. G., Ratnappan, R., Keith, S. A. & Ghazi, A. The C. elegans lifespan assay toolkit. Methods 68, 465-475 (2014).] using a modified version of the Automated Lifespan Machine 7.
The lifespan assay was initiated by expanding all replicate groups to more than 1000 worms, then synchronizing by bleaching and allowing larval worms to hatch and arrest. To suppress progeny, worms were transferred to media containing 5-Fluorodeoxyuridine (FUdR) within 54-60 hours post-plating. Worms were inspected 24 and 48 hours after this transfer to confirm infertility. Finally, the worms were inspected for general health and morphology before transferring to scanner plates. The scanner plates were transferred to scanners for automated imaging on day 3 of adulthood.
Plates were immobilized inverted on the bed of an Automated Lifespan Machine which scanned two images per hour of the plates continuously for the next 40 days.
Time of death calls exported from the ALM software was analyzed and plotted using the Lifelines software package developed by Cam Davidson-Pilon et. al [Davidson-Pilon, C et. al. Lifelines survival analysis package. CamDavidsonPilon/lifelines: vo. 25-9.]. Additional analysis was performed using the OASIS2 analysis software6.
Worm movement was tracked from the images acquired by the ALM during the lifespan assay. Worm size and movement features were extracted and analyzed using custom software.

Assay [3] has as its system C. elegans. The experiment in a line: Global gene expression by mRNA sequencing (RNA-Seq), GO enrichment and pathway mapping. Format: in vivo, Caenorhabditis elegans. On the procedure: To identify potential mechanisms of action through which SND305 and SND306 could affect aging, global gene expression was analyzed by mRNA sequencing (RNA-Seq). Worms were treated on the same media and conditions as the lifespan assay, then young worms were harvested at adult day 3 and aged worms harvested at adult day 10. Three replicates of treated samples were analyzed.
More than 300 day 1 adult worms per replicate were harvested, cleaned by filtration, and frozen at −80° in Trizol. To extract RNA, samples were thawed, vigorously vortexed, and processed using the Direct-zol RNA Miniprep Kit (Zymo Research). All samples exceeded the threshold for RNA quantity and quality.
The total RNA was then enriched for poly-mRNA using oligo(dT) paramagnetic beads. DNA libraries were then constructed from this input mRNA using the NEBNext Ultra™ II RNA Library Prep Kit. This created a ready-to-sequence dsDNA library that retained the strand-specific information in the original mRNA. These libraries were then further tested by the Qubit for concentration and the Agilent 2100 for library size distribution and quality. In order to properly pool the libraries and load them onto sequencing lanes to ensure the correct number of reads per sample, an even more precise quantification of the library was done via qPCR, and the samples were loaded onto the NovaSeq 6000 platform for a paired-end sequencing run of 150 bp for each end (PE150). The loading concentrations were designed to obtain at least 6.0 Gb (which is the number of billion bases of raw data, determined by the number of reads multiplied by the length of each read).
The raw data set was analyzed for • 1. The distribution of base quality along the length of the sequencing read • 2. The distribution of error rate along the length of the sequencing read • 3. The distribution of A/T/G/C bases along the length of the sequencing read • 4. The distribution of raw data filtering results based on the following three criteria: • a. Removing reads containing adapter sequence • b. Removing reads with N>10% (where N means “base cannot be determined”) • c. Removing reads with a low quality (Qscore<=5) for 50% or more of its total bases
Multidimensional scaling makes it possible to see strong patterns in large, complex data sets by reducing the data to two or three dimensions. When the data is plotted along these few dimensions, the samples form clustered based on their overall similarity to one another. The distance between samples is calculated based on the Biological Coefficient of Variation (BCV). Greater differences were observed between all conditions at Day 10 than at Day 3. To identify genes that are differentially expressed upon treatment with SND305 and SND306, the gene counts for each of the treated samples were compared against the control.
GO enrichment analysis is a common approach that identifies functional groups form lists of differentially expressed genes. Genes are annotated based on functional categories (gene ontologies) that are further categorized by biological process (BP), molecular function (MF), or cellular compartment (CC). A comparison is made between the likelihood of seeing genes in that category (ontology) being enriched or depleted in the list of DEGs when compared to a random selection of genes.
In order to identify which cellular pathways were most likely modulated by treatment with SND305 and SND306 and gain insight into how these pathways might contribute to mechanism of action (MoA), the genes differentially expressed after SND305 and SND306 treatment were mapped to core established longevity pathways from the literature. The mapping was then expanded to intersecting and supporting pathways. This placed the transcriptomic data within the context of well-characterized biological pathways, particularly several related to longevity.

Setting [4] is: aged (Day 10) worms, weighted by the p-value.

Take `O=c1oc2cc(O)ccc2c2ccc(O)cc12` [Urolithin A, urolithin A]: in the assay with C. elegans strain SD1347, the “Sum of the mitochondrial fragmentation scores per image vs control” value was “did not reach statistical significance”. In the assay on C. elegans [1], the “Accumulation of dysfunctional mitochondria with age” value was “prevented the accumulation of dysfunctional mitochondria with age” and the Effect on lifespan result is recorded as “extended lifespan”.

In the case of `CO[C@H]1C[C@@H]2CC[C@@H](C)[C@@](O)(O2)C(=O)C(=O)N2CCCC[C@H]2C(=O)O[C@H]([C@H](C)C[C@@H]2CC[C@@H](O)[C@H](OC)C2)CC(=O)[C@H](C)/C=C(\C)[C@@H](O)[C@@H](OC)C(=O)[C@H](C)C[C@H](C)/C=C/C=C/C=C/1C` [Rapamycin, reference compound], in the assay with C. elegans [2], the Max life span was found to be 33.0 days, the Mean life span was 26.2 days and the Median life span is 26.5 days.

In the case of `CC(C)NC(=O)Oc1ccc2c(c1)COc1cc(OC(=O)NC(C)C)ccc1-2` [SND306], in the assay on C. elegans [2], the “Effect on lifespan” value was “increased the life span with statistical significance”, the Max life span amounted to 34.6 days, the Mean life span was 25.8 days and the Median life span is 26.6 days. Also, in the assay on C. elegans [3] (Day 3), the “Noteable GO categories enriched or depleted, Down” value is given as “hydrolase activity” and the “Noteable GO categories enriched or depleted, Up” value is on record as “structural constituent of cuticle (e.g. collagen), immune response, lipid”. Further, in the assay with C. elegans [3] (Day 10), the “Noteable GO categories enriched or depleted, Down” value is given as “extracellular region, immune response, response to other organism”; the “Noteable GO categories enriched or depleted, Up” value is “enrichment in genes involved with axon development and regeneration; also recorded: nervous system development, neurogenesis, regulation of gene expression”. In addition, the “Expression of genes specifically involved in axon regeneration” value in the assay on C. elegans [3] (Day 10 (FIGS. 4 and 5)) is on record as “upregulation”. In the assay on C. elegans [3] (Day 10, P-value<0.05 and fold change >2.0), the “Differentially expressed genes above threshold (volcano plot)” value is on record as “a large number of DEGs above threshold”. Further, in the assay on C. elegans [3] (setting [4]), the “CTSB expression, fold down-” value is reported as > 5 fold; the “CTSD expression, fold down-” value is > 5 fold; the “LAMP expression, fold up-” value is on record as > 5 fold. In the assay with C. elegans [3] (day 3 (FIGS. 2 and 3)), the “Expression of cathepsin orthologs cpr-1, cpr-4, cpr-9” value is listed as “upregulated”; the “Insulin Signaling (IIS) Pathway components daf-18, akt-1, and daf-16” value is “slight modulation”. Also, in the assay on C. elegans strain SD1347, the “Sum of the mitochondrial fragmentation scores per image vs control” value is reported as “significantly less fragmentation than the control”.
